Test results: patent US11459586B2, “Methods for increasing efficiency of nuclease-mediated gene editing in stem cells” (President and Fellows of Harvard College, priority 2016, dated 2022)

System: human iPSC
Assay: gene targeting (mThy1, mCD147) in hiPSC transiently transfected with Cas9-IRES-anti-apoptotic gene plasmids
Type: cell-based
Procedure: FIGS. 4A-D. Bcl-2 overexpression increases HR-mediated gene targeting in human iPSC when transiently transfected with the Cas9 nuclease. FIG. 4A. Mouse Thy1 gene targeting scheme. FIG. 4B. Plasmids were constructed to constitutively express Cas9 together with an anti-apoptotic gene (separated by an IRES) under the constitutively active EF1α promoter. Plain human iPSC were nucleofected with 0.5 μg of one of these Cas9 plasmids together with 2 μg of the mThy1 targeting vector and 1.5 μg of plasmids expressing the Thy1 Left, Right, both, or no sgRNAs (pUC19). Five days later, cells were analyzed by flow cytometry. FIG. 4C. Flow cytometry staining for mThy1 and hThy1 for the Cas9 only sample gated on live single cells; the percent of cells in each quadrant is indicated. […] FIG. 4D. Compiled gene editing frequencies. The percent of mThy1^+hThy1^− (bottom portion of each bar in the left, center, and right grafts), mThy1^+hThy1^+ (top portion of bars in the left and center graphs), and mThy1^−hThy1^− (top portion of bars in the right graph) cells is graphed for each indicated sample. Lines mark the percentages for the Cas9 only sample. Results are representative of two independent experiments.
FIGS. 8A-F. Wild type Bcl-2 improves gene targeting at various genomic loci across multiple hiPSC lines. FIG. 8A. Plasmids were constructed to constitutively express the Cas9 nuclease with a form of Bcl-2 (separated by an IRES), and a sgRNA. Three human iPSC lines were nucleofected with 2 μg of mThy1 or mCD147 targeting vector and 2 μg of “Cas9 sgRNA” or “Cas9 Bcl-2 sgRNA” expression plasmid. 5-9 days later, cells were analyzed by flow cytometry. FIG. 8B. Mouse Thy1 gene targeting scheme. FIG. 8C. Single amino acid mutations were generated for the Bcl-2 BH1 (G145A) or BH4 (Y28A) domains. Compiled gene editing frequencies for cells transfected with the Left, Right, or Both Thy1 sgRNAs. The percent of mThy1^+hThy1^− (bottom portion of each set of bars in each graph), mThy1^+hThy1^+ (top portion of left and center sets of bars in each graph and center portion of right set of bars in each graph), and mThy1^−hThy1^− (top portion of right set of bars in each graph) cells among the various samples is indicated. FIG. 8D. Mouse CD147 gene targeting scheme. FIG. 8E. Flow cytometry staining for mCD147 and hCD147 for retrovirally-derived PGP1 hiPSC transfected with “Cas9 sgRNA” or “Cas9 Bcl-2 sgRNA”. Samples are gated on live single cells; the percent of cells in each quadrant is indicated. FIG. 8F. Compiled gene editing frequencies for cells transfected with the Left, Right, or both CD147 sgRNAs. The percent of mCD147^+hCD147^− (bottom portion of each set of bars in each graph), mCD147^+hCD147^+ (top portion of left and center sets of bars in each graph and center portion of right set of bars in each graph), and mCD147^−hCD147^− (top portion of right set of bars in each graph) cells among the three hiPSC lines is indicated.
PCR reactions were done using polymerase sold under the trademark KAPA HIFI™ HotStart polymerase; primers and double-stranded DNA fragments sold under the trademark GBLOCKS® are from IDT. Plasmids were constructed using isothermal assembly, transformed into Stbl3 competent E. coli (Invitrogen), grown at 30° C., and verified by Sanger sequencing (Genewiz). Anti-apoptotic genes were obtained from previously published plasmids: Bcl-2 (Addgene plasmid #8793) and Bcl-xL (#8790) (Cheng et al., 2001); Bcl2A1 (#36973) (Pratt et al., 2012); and Mcl-1 (#21605) (Maurer et al., 2006). The dominant negative p53 sequence from Addgene plasmid #9058 (Hahn et al., 2002) was synthesized as a gBlock. These genes were cloned into the EF1α promoter-Cas9 nuclease plasmid after an IRES.
The U6 promoter-sgRNA (for each sgRNA sequence) was cloned into the EF1α promoter-Cas9 nuclease or EF1α promoter-Cas9 nuclease-IRES-Bcl-2 expression plasmids to form the “Cas9 only sgRNA” or “Cas9 Bcl-2 sgRNA” plasmids used in Examples 6 and 7. […]

## Bcl-2: B cell lymphoma 2 protein, anti-apoptotic, overexpressed from lentivirus or Cas9 plasmid
Bcl-2 on the Cas9 plasmid, PGP4 hiPSC line
  gene targeting at the CD147 and Thy1 loci: markedly improved gene targeting
Bcl-2 on the Cas9 plasmid, retroviral and non-integrating PGP1 hiPSC lines
  mCD147 gene targeting frequencies: substantially and reproducibly increased gene targeting frequencies
Cas9 Bcl-2 sgRNA plasmids, transient transfection
  mThy1 gene targeting, wild type vs mutant Bcl-2: greatest enhancement
Transient transfection of Cas9-IRES-anti-apoptotic factor plasmid
  mThy1 gene targeting frequencies compared to Cas9 only controls: the only anti-apoptotic factor that increased gene targeting frequencies
